What all share (experiment): stopped-flow CO2 hydration assay, phenol red
What all share (assay type): biochemical

For one assay, the target named is T1, hCA I (Homo sapiens, UniProt P00915).
T1 construct: gene CA1; recombinant, obtained in-house; cytosolic
From the text: stopped-flow CO2 hydration assay, phenol red on hCA I

Assay [1] concerns the target T2, hCA IX (Homo sapiens, UniProt Q16790).
T2 construct: gene CA9; recombinant, obtained in-house; tumor-associated transmembrane isoform
From the text:
stopped-flow CO2 hydration assay, phenol red on hCA IX

Assay [2] concerns the target T3, hCA II (Homo sapiens, UniProt P00918).
T3 construct: gene CA2; recombinant, obtained in-house; cytosolic
From the text: stopped-flow CO2 hydration assay, phenol red on hCA II

For assay [3], the target named is T4, hCA IV (Homo sapiens, UniProt P22748).
T4 construct: gene CA4; recombinant, obtained in-house
T4 sequence (P22748 19-284): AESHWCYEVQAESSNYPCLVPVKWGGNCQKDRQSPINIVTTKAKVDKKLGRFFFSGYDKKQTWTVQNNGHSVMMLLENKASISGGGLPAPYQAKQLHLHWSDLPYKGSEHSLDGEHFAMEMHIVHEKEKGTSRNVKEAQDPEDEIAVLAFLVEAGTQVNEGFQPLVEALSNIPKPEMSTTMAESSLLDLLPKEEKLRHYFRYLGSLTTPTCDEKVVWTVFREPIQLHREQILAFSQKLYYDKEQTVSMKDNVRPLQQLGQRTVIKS
From the text: stopped-flow CO2 hydration assay, phenol red on hCA IV

The target of assay [4] is T4, hCA IV. To be noted: read-out: hCAI.
Assay [5] concerns the target T2, hCA IX. To be noted: read-out: hCAI.
Assay [6] addresses T3, hCA II. To be noted: read-out: hCAI.

Read-outs that look alike come from different tables or passages of the source. Bounds are passed on as bounds.

T1 sequence (P00915 2-261): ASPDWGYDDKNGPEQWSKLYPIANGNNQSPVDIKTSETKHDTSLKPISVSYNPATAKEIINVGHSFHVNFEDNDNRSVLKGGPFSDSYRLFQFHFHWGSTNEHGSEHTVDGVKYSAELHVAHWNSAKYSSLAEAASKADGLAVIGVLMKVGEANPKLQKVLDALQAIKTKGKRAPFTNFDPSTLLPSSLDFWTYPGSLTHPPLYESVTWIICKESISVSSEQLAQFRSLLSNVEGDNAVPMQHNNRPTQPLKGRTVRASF

As for `C[C@H](CCC(=O)O)[C@H]1CC[C@H]2[C@@H]3[C@H](O)[C@H](O)[C@@H]4C[C@H](O)CC[C@]4(C)[C@H]3CC[C@]12C` [compound 9, Hyocholic acid], the Ki on hCA I (read-out: hCAI) was 83.3 µM; at hCA IX [1] (read-out: hCA IX), 71.9 µM; at hCA II [2] (read-out: hCA II) it was 38.9 µM; at hCA IV [3] (read-out: hCA IV) it was > 100 µM.
Take `C[C@H](CCC(=O)O)[C@H]1CC[C@H]2[C@@H]3C[C@H](O)[C@@H]4C[C@H](O)CC[C@]4(C)[C@H]3CC[C@]12C` [compound 8, Hyodeoxycholic acid]: the Ki at hCA I (read-out: hCAI) is > 100 µM; at hCA IX [1] (read-out: hCA IX) it was 67.7 µM; at hCA IV [4], > 100 µM; at hCA II [2] (read-out: hCA II) it was 58.4 µM.
Turning to `C[C@]12CC[C@@H]3c4ccc(O)cc4CC[C@H]3[C@@H]1CCC2=O` [compound 20, Estron], the Ki at hCA I (read-out: hCAI) was > 100 µM; on hCA IX [1] (read-out: hCA IX) it was 71.4 µM; at hCA IV [4] it was > 100 µM; on hCA II [2] (read-out: hCA II) it was 50.8 µM.
Take `C[C@H](CCC(=O)O)[C@H]1CC[C@H]2[C@@H]3CC[C@@H]4C[C@H](O)CC[C@]4(C)[C@H]3CC[C@]12C` [compound 3, Lithocholic acid]: the Ki is > 100 µM at hCA I (read-out: hCAI), 70.2 µM at hCA IX [1] (read-out: hCA IX), > 100 µM at hCA IV [4] and 64.5 µM on hCA II [2] (read-out: hCA II).
In the case of `C[C@H](CCC(=O)O)[C@H]1CC[C@H]2[C@@H]3[C@H](O)C[C@@H]4C[C@H](O)CC[C@]4(C)[C@H]3C[C@H](O)[C@]12C` [compound 2, Cholic acid], the Ki on hCA I (read-out: hCAI) is > 100 µM; on hCA IX [1] (read-out: hCA IX), 47.1 µM; on hCA IV [4], > 100 µM; at hCA II [2] (read-out: hCA II), 48.9 µM.
Regarding `C[C@]12CC[C@H]3[C@@H](CCC4=CC(=O)CC[C@@]43C)[C@@H]1CC[C@@H]2O` [compound 13, Testosterone], the Ki at hCA I, on hCA IX [1], on hCA II [2] and on hCA IV [3] was > 100 µM in each case.
Consider `C[C@]12CC[C@@H](O)C[C@@H]1CC[C@@H]1[C@@H]2CC[C@]2(C)C(=O)CC[C@@H]12` [compound 14, Androsterone], for which the Ki at hCA I, on hCA IX [1], at hCA II [2] and on hCA IV [3] was > 100 µM each time.
Take `CC(=O)[C@H]1CC[C@H]2[C@@H]3CCC4=CC(=O)CC[C@]4(C)[C@H]3CC[C@]12C` [compound 17, Progesterone]: the Ki on hCA I (read-out: hCAI), on hCA IV [4], on hCA IX [5] and at hCA II [6] was > 100 µM in each case.
As to `C[C@H](CCC(=O)NCCS(=O)(=O)O)[C@H]1CC[C@H]2[C@@H]3[C@@H](O)C[C@@H]4C[C@H](O)CC[C@]4(C)[C@H]3CC[C@]12C` [compound 7, Tauroursodeoxycholic acid], the Ki on hCA I (read-out: hCAI) was > 100 µM; on hCA IX [1] (read-out: hCA IX) it was 42.9 µM; at hCA IV [4] it was > 100 µM; on hCA II [2] (read-out: hCA II) it was 82.9 µM.
Consider `CC(C)CCC[C@@H](C)[C@H]1CC[C@H]2[C@@H]3CC[C@@H]4C[C@@H](O)CC[C@]4(C)[C@H]3CC[C@]12C` [compound 12, Coprostan-3-ol], for which the Ki at hCA I (read-out: hCAI), on hCA IV [4], at hCA IX [5] and on hCA II [6] was > 100 µM each time.
Consider `C[C@]12CC[C@@H]3c4ccc(O)cc4CC[C@H]3[C@@H]1CC[C@H]2O` [compound 19, α-Estradiol], for which the Ki at hCA I (read-out: hCAI) is 87.8 µM; at hCA IX [1] (read-out: hCA IX), 49.6 µM; at hCA II [2] (read-out: hCA II), 40.4 µM; on hCA IV [3] (read-out: hCA IV), > 100 µM.
For the compound `C[C@H](CCC(=O)NCC(=O)O)[C@H]1CC[C@H]2[C@@H]3[C@@H](O)C[C@@H]4C[C@H](O)CC[C@]4(C)[C@H]3CC[C@]12C` [compound 6, Glycoursodeoxycholic acid], the Ki on hCA I (read-out: hCAI) was > 100 µM; at hCA IX [1] (read-out: hCA IX), 89.9 µM; on hCA IV [4], > 100 µM; at hCA II [2] (read-out: hCA II) it was 78.4 µM.
Take `C[C@]12CCC(=O)C[C@@H]1CC[C@@H]1[C@@H]2CC[C@]2(C)[C@@H](O)CC[C@@H]12` [compound 16, Androstanolone]: the Ki at hCA I, at hCA IX [1], on hCA II [2] and on hCA IV [3] was > 100 µM each time.
`C[C@H](CCC(=O)O)[C@H]1CC[C@H]2[C@@H]3[C@H](O)C[C@@H]4C[C@H](O)CC[C@]4(C)[C@H]3CC[C@]12C` [compound 1, Chenodeoxycholic acid]: the Ki at hCA I (read-out: hCAI) is > 100 µM; on hCA IX [1] (read-out: hCA IX), 63 µM; on hCA IV [4], > 100 µM; at hCA II [2] (read-out: hCA II) it was 53.9 µM.
In the case of `C[C@H](CCC(=O)O)[C@H]1CC[C@H]2[C@@H]3[C@@H](O)C[C@@H]4C[C@H](O)CC[C@]4(C)[C@H]3CC[C@]12C` [compound 5, Ursodeoxycholic acid], the Ki on hCA I (read-out: hCAI) is 95.9 µM; on hCA IX [1] (read-out: hCA IX), 73.1 µM; on hCA II [2] (read-out: hCA II), 71.4 µM; at hCA IV [3] (read-out: hCA IV), > 100 µM.
`C[C@]12CC[C@H](O)CC1=CC[C@@H]1[C@@H]2CC[C@]2(C)C(=O)CC[C@@H]12` [compound 15, Trans-dehydroandrosterone]: the Ki at hCA I (read-out: hCAI), on hCA IV [4], on hCA IX [5] and on hCA II [6] was > 100 µM in each case.
`CC(=O)[C@H]1CC[C@H]2[C@@H]3CCC4=CC(=O)CC[C@]4(C)[C@H]3[C@H](O)C[C@]12C` [compound 18, 11α-Hydroxyprogesterone]: the Ki on hCA I (read-out: hCAI), on hCA IV [4], at hCA IX [5] and at hCA II [6] was > 100 µM each time.
With `C[C@H](CCC(=O)O)[C@H]1CC[C@H]2[C@@H]3CC[C@@H]4C[C@H](O)CC[C@]4(C)[C@H]3C[C@H](O)[C@]12C` [compound 4, Deoxycholic acid], the Ki at hCA I (read-out: hCAI) was > 100 µM; at hCA IX [1] (read-out: hCA IX), 55 µM; on hCA IV [4], > 100 µM; on hCA II [2] (read-out: hCA II) it was 51 µM.
Regarding `C[C@@H]1CC[C@@]2(OC1)O[C@H]1C[C@H]3[C@@H]4CC=C5C[C@@H](O)CC[C@]5(C)[C@H]4CC[C@]3(C)[C@H]1[C@@H]2C` [compound 22, Diosgenin], the Ki at hCA I (read-out: hCAI), on hCA IV [4], on hCA IX [5] and on hCA II [6] was > 100 µM throughout.
For the compound `C[C@]12CCC(=O)C=C1CC[C@@H]1[C@@H]2[C@@H](O)C[C@@]2(C)[C@H]1CC[C@]2(O)C(=O)CO` [compound 21, Hydrocortisone], the Ki at hCA I (read-out: hCAI), at hCA IV [4], on hCA IX [5] and on hCA II [6] was > 100 µM throughout.
For the compound `CC(C)CCC[C@@H](C)[C@H]1CC[C@H]2[C@@H]3CC=C4C[C@@H](O)CC[C@]4(C)[C@H]3CC[C@]12C` [compound 11, Cholesterol], the Ki on hCA I (read-out: hCAI), on hCA IV [4], on hCA IX [5] and at hCA II [6] was > 100 µM throughout.
For `C[C@H](CCC(=O)O)[C@H]1CC[C@H]2[C@@H]3C(=O)C[C@@H]4CC(=O)CC[C@]4(C)[C@H]3CC(=O)[C@]12C` [compound 10, Dehydrocholic acid], the Ki at hCA I (read-out: hCAI) was > 100 µM; on hCA IX [1] (read-out: hCA IX) it was 53.9 µM; at hCA IV [4], > 100 µM; on hCA II [2] (read-out: hCA II), 57.8 µM.

The record behind these values is PMC7011995, “Steroids interfere with human carbonic anhydrase activity by using alternative binding mechanisms” (Journal of Enzyme Inhibition and Medicinal Chemistry, 2018).
